Measurements from PMC8241751, “Influence of the Dabcyl group on the cellular uptake of cationic peptides: short oligoarginines as efficient cell-penetrating peptides” (Amino Acids, 2021).
Where a SMILES comes first, the peptide text is derived from it. The star is where a group is joined. 5FAM = O=C1OC2(c3ccc(O)cc3Oc3cc(O)ccc32)c2ccc(C(=O)*)cc21; X1 = CN(C)c1ccc(/N=N/c2ccc(C(=O)*)cc2)cc1

Key:
[1] = tested on: HL-60 cells; experiment: Cellular uptake by flow cytometry on HL-60 cells; type: cell-based, human; conditions: 90 min, 37 °C, serum-free
Procedure: HL-60 cells were cultured as described above. To study the cellular uptake of fluorescent labelled compounds, 10^5 cells per well were plated on 24-well plates. After 24 h incubation at 37 °C, cells were treated with the compounds solved in the corresponding serum-free media for 90 min. The cellular uptake was analysed at 1, 5 and 10 µM concentrations. Cells treated with serum-free media for 90 min were used as control. After incubation, treatment solutions were removed and the cells were treated with 100 μL trypsin for 2 min to remove the membrane proteins in order to eliminate non-specific binding of conjugates. The effect of trypsin was terminated by 900 μL HPMI (glucose, NaHCO3, NaCl, HEPES, KCl, MgCl2, CaCl2, Na2HPO4·2H2O) (Kapus et al. [1994]) containing 10% foetal calf serum, and the cells were transferred from the plate to FACS-tubes. Cells were centrifuged at 216 g at 4 °C for 5 min and the supernatant was removed. After this procedure, cells were resuspended in 500 µL HPMI, and the intracellular fluorescence intensity of HL-60 cells was monitored (on channel FITC LP505; emission at λ = 505 nm; LP 505, BP 530/30) by flow cytometry (BD LSR II, BD Bioscience, San Jose, CA, equipped with 488 nm; Coherent Sapphire, 22 mW laser.) which is proportional to the cellular uptake. Data were analysed with FACSDiVa 5.0 software.

[2] = tested on: HeLa cells; experiment: Confocal microscopy of internalisation into HeLa cells; type: cell-based, human; conditions: 5 μM, serum free (–) medium, 37 °C
Procedure: HeLa cells (2.0 × 10^5 cells) seeded in 35-mm glass-bottomed dishes (Iwaki) were cultured at a 37 °C incubator for 24 h. The cells were then incubated with peptide in α-MEM( +) and α-MEM(–) for 30 min at 37 °C or 4 °C. After washing with PBS( +) containing 0.5% (w/v) heparin, intracellular distribution of the fluorescently-labelled peptides was analysed without fixing using a confocal microscope (FV1000, Olympus). For time-lapse imaging, the cells were placed at 37 °C in a microchamber (MI-IBC-IF, Olympus) attached on the stage of the inverted microscope. The cells were then treated with 5 µM of Dabcyl–Arg6–Lys(Rh)–NH2 or Dabcyl–Arg4–Lys(Cf)–NH2 in α-MEM( +) or α-MEM(–). Time 0 represents the image immediately after the addition of conjugates.

[3] = tested on: HL-60 cells; experiment: In vitro cytostatic activity (MTT) on HL-60; type: cell-based, human; conditions: HL-60; 3 h incubation, then 3 days in serum-containing medium; MTT assay; ± sd, three independent experiments with four parallels
Procedure: The cells (HL-60 or MCF-7) were grown to confluency and were plated into 96-well plate with initial cell number of 5 × 10^3 per well. After 24 h incubation at 37 °C, cells were treated with the compounds at 1.28 × 10^–3–100 μM concentration range for 3 h in 200 μL final volume. Control cells were treated with serum free medium at 37 °C for 3 h. After incubation the cells were washed twice with serum free medium. For the analysis of the in vitro cytostatic effect, cells were cultured for an additional 72 h in serum containing medium. On day 4, MTT assay was carried out to determine the IC50 values of the compounds. Briefly, 45 μL of MTT solution was added to each well (2 mg/mL, dissolved in serum-free medium). Following the 4 h incubation, plates were centrifuged at 900 g for 5 min, and the supernatant was removed. The precipitated purple crystals were dissolved in 100 μL DMSO and the absorbance was determined at λ = 540 nm and λ = 620 nm using ELISA plate reader (iEMSReader, Labsystems, Finland). The percent of cytostasis was calculated using the following equation: Cytostatic effect (%) = [1 − (ODtreated/ODcontrol)] × 100; where ODtreated and ODcontrol correspond to the optical densities of the treated and the untreated control cells, respectively. In each case three independent experiments were carried out with four parallel measurements. […] The curves were defined using MicrocalTM Origin (version 9.2) software: cytostasis was plotted as a function of concentration, fitted to a sigmoidal curve, and based on this curve, the IC50 value was determined.

[4] = tested on: CHO-K1 cells; experiment: Relative quantification of total internalised peptide by flow cytometry; conditions: CHO-K1, 1 h, DMEM-F12, internalisation ratio by flow cytometry, intact cells, 20.000 cells
Procedure: After incubation and washing the cells with HBSS, 500 μL 0.05% trypsin/EDTA 0.05% (37 °C) or 500 µL pronase 0.05% in 100 mM Tris-buffer (4 °C) was added for 5 min to hydrolyze the remaining extracellular peptide, the membrane-bound peptide and to detach cells. After addition of 100 µL enzyme inhibitors (complete mini at 4 °C (Roche) or trypsin inhibitor (soybean inhibitor 5 mg/mL) at 37 °C mixed with 100 μL bovine serum albumin (1 mg/mL). Cells were transferred into a microtube, centrifuged, washed with 1 mL 50 mM Tris-buffer pH 7.4, 0.1% BSA, and the cell pellet was suspended in 400 μL of PBS. The fluorescence of individual cells was analysed with a FACS Calibur flow cytometer. 20.000 cells were measured for each experimental condition. The mean fluorescence of a sample was obtained by subtracting the autofluorescence of cells from the measured mean fluorescence of cells in the presence of the peptide.

[5] = tested on: CHO-K1 cells; experiment: In vitro cytotoxicity assay (CCK-8); type: cell-based, Chinese Hamster; conditions: different concentrations (0-20 µM), 1 h, 37 °C
Procedure: Cytotoxicity was determined with the Cell Counting Kit 8 (CCK-8) from Dojindo Molecular Technologies using CHO-K1 cells. This colorimetric assay allows to measure the viability of cells. 96-well plates were inoculated with 100 μL/well of a suspension of cells (2 × 10^4 cells/well). […] After washing, the cells were incubated with 100 μL of 10% CCK-8 in DMEM for 3 h and the absorbance was measured at λ= 450 nm with a microplate reader (Polarstar Optima). Controls corresponded to untreated cells with DMEM (negative control, 100% viability) and cells treated with 0.1% of Triton X-100 (positive control, 0% viability).

## CN(C)c1ccc(/N=N/c2ccc(C(=O)N[C@@H](CCCNC(=N)N)C(=O)N[C@@H](CCCNC(=N)N)C(=O)N[C@@H](CCCNC(=N)N)C(=O)N[C@@H](CCCNC(=N)N)C(=O)N[C@@H](CCCNC(=N)N)C(=O)N[C@@H](CCCNC(=N)N)C(=O)N[C@@H](CCCCNC(=O)c3ccc4c(c3)C(=O)OC43c4ccc(O)cc4Oc4cc(O)ccc43)C(N)=O)cc2)cc1 [Dabcyl–Arg6–Lys(Cf)–NH2] (X1-RRRRRRK(5FAM)-NH2)
[1]; HL-60, 5 μM
  Cellular uptake, times higher than that of octaarginine: 4 times
[1]; HL-60, 10 μM
  Cellular uptake, times higher than that of octaarginine: 1.5 times
[2]
  Time of binding to the cell membrane: 0.5 min
  Time of internalisation: ≤ 1.5 min
[3]
  IC50: 21.8 ± 8.2 µM
[4]; [peptide] 1 μM
  4 °C/37 °C (Flow cyto.): 0.14
[4]; [peptide] 2.5 μM
  4 °C/37 °C (Flow cyto.): 0.04
[4]; [peptide] 5 μM
  4 °C/37 °C (Flow cyto.): 0.05
[4]; [peptide] 10 μM
  4 °C/37 °C (Flow cyto.): 0.04
[5]
  Cytotoxic effect on CHO-K1 cells: no cytotoxic effect
